Data as given in PubChem BioAssay AID2060625 (Molecular Pharmacology Branch, DTP, NCI, 2025).

System: 186277-243-T-J2-PDC spheroids with HUVEC/MSC, viability
Test: Anticancer human tumor 186277-243-T-J2-PDC patient-derived colon adenocarcinoma cell line growth inhibition [CLK]
Details: for IC50: curve of first compound; for viability, T/C: stronger effect = lower value
Procedure, shortened: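 Multi-cell-type spheroids combined patient-derived tumor cells with HUVEC endothelial cells and human mesenchymal stem cells. Paired agents were dosed in half-log steps down from about clinical Cmax, or from 10 microM where Cmax was unknown.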

[1] = second compound 0.0316 µM, first compound 0.0316 µM
[2] = second compound 0.0316 µM, first compound 0.1 µM
[3] = second compound 0.0316 µM, first compound 0.316 µM
[4] = second compound 0.0316 µM, first compound 1 µM
[5] = second compound 0.0316 µM, first compound 3.16 µM
[6] = second compound 0.0316 µM, first compound 10 µM
[7] = second compound 0.1 µM, first compound 0.0316 µM
[8] = second compound 0.1 µM, first compound 0.1 µM
[9] = second compound 0.1 µM, first compound 0.316 µM
[10] = second compound 0.1 µM, first compound 1 µM
[11] = second compound 0.1 µM, first compound 3.16 µM
[12] = second compound 0.1 µM, first compound 10 µM
[13] = second compound 0.316 µM, first compound 0.0316 µM
[14] = second compound 0.316 µM, first compound 0.1 µM
[15] = second compound 0.316 µM, first compound 0.316 µM
[16] = second compound 0.316 µM, first compound 1 µM
[17] = second compound 0.316 µM, first compound 3.16 µM
[18] = second compound 0.316 µM, first compound 10 µM
[19] = second compound 1 µM, first compound 0.0316 µM
[20] = second compound 1 µM, first compound 0.1 µM
[21] = second compound 1 µM, first compound 0.316 µM
[22] = second compound 1 µM, first compound 1 µM
[23] = second compound 1 µM, first compound 3.16 µM
[24] = second compound 1 µM, first compound 10 µM
[25] = second compound 3.16 µM, first compound 0.0316 µM
[26] = second compound 3.16 µM, first compound 0.1 µM
[27] = second compound 3.16 µM, first compound 0.316 µM
[28] = second compound 3.16 µM, first compound 1 µM
[29] = second compound 3.16 µM, first compound 3.16 µM
[30] = second compound 3.16 µM, first compound 10 µM
[31] = second compound 10 µM, first compound 0.0316 µM
[32] = second compound 10 µM, first compound 0.1 µM
[33] = second compound 10 µM, first compound 0.316 µM
[34] = second compound 10 µM, first compound 1 µM
[35] = second compound 10 µM, first compound 3.16 µM
[36] = second compound 10 µM, first compound 10 µM
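Note: compound exposure lasted seven days before readout.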
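Throughout, for viability, T/C: 100% = DMSO vehicle control wells.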

In the case of CC(C)CC(NC(=O)C(Cc1ccccc1)NC(=O)c1cnccn1)B(O)O (stereo unspecified) + CN1CCN(c2cc(C(=O)Nc3cc4cc(-c5cnn(C)c5)ccc4cn3)ccn2)CC1, the IC50 (second compound 0.0316 µM) is reported as 4.52 nM, the IC50 (second compound 0.1 µM) is reported as 2.27 nM and the IC50 (second compound 0.316 µM) is reported as < 0.949 nM. The IC50 (second compound 1 µM) was < 0.949 nM, the IC50 (second compound 3.16 µM) was < 0.949 nM and the IC50 (second compound 10 µM) was < 0.949 nM. It also gave a viability, T/C (second compound 0.0316 µM, first compound 0.000949 µM) of 93%, a viability, T/C (second compound 0.0316 µM, first compound 0.003 µM) of 77.2% and a viability, T/C (second compound 0.0316 µM, first compound 0.00949 µM) of 0.25%. The viability, T/C (second compound 0.0316 µM, first compound 0.03 µM) was 0.9%, the viability, T/C (second compound 0.0316 µM, first compound 0.0949 µM) was 0.78% and the viability, T/C (second compound 0.0316 µM, first compound 0.3 µM) was 1.15%. The viability, T/C (second compound 0.1 µM, first compound 0.000949 µM) was 88.1%, the viability, T/C (second compound 0.1 µM, first compound 0.003 µM) was 37.7% and the viability, T/C (second compound 0.1 µM, first compound 0.00949 µM) was 1.84%. For the same compound, the viability, T/C (second compound 0.1 µM, first compound 0.03 µM) was 0.31%, the viability, T/C (second compound 0.1 µM, first compound 0.0949 µM) was 1.92% and the viability, T/C (second compound 0.1 µM, first compound 0.3 µM) was 0.17%. For the same compound, the viability, T/C (second compound 0.316 µM, first compound 0.000949 µM) was 26.1%, the viability, T/C (second compound 0.316 µM, first compound 0.003 µM) was 1.14% and the viability, T/C (second compound 0.316 µM, first compound 0.00949 µM) was 1.35%. The viability, T/C (second compound 0.316 µM, first compound 0.03 µM) was 1.4%, the viability, T/C (second compound 0.316 µM, first compound 0.0949 µM) was 1.62% and the viability, T/C (second compound 0.316 µM, first compound 0.3 µM) was 0.34%. It also gave a viability, T/C (second compound 1 µM, first compound 0.000949 µM) of 0.5%, a viability, T/C (second compound 1 µM, first compound 0.003 µM) of 0.4% and a viability, T/C (second compound 1 µM, first compound 0.00949 µM) of 1.57%. The viability, T/C (second compound 1 µM, first compound 0.03 µM) was 0.8%, the viability, T/C (second compound 1 µM, first compound 0.0949 µM) was 1.78% and the viability, T/C (second compound 1 µM, first compound 0.3 µM) was 0.17%. It also gave a viability, T/C (second compound 3.16 µM, first compound 0.000949 µM) of 2.83%, a viability, T/C (second compound 3.16 µM, first compound 0.003 µM) of 0.72% and a viability, T/C (second compound 3.16 µM, first compound 0.00949 µM) of 0.33%. It also gave a viability, T/C (second compound 3.16 µM, first compound 0.03 µM) of 1.62%, a viability, T/C (second compound 3.16 µM, first compound 0.0949 µM) of 1.24% and a viability, T/C (second compound 3.16 µM, first compound 0.3 µM) of 0.17%. For the same compound, the viability, T/C (second compound 10 µM, first compound 0.000949 µM) was 1.17%, the viability, T/C (second compound 10 µM, first compound 0.003 µM) was 0.46% and the viability, T/C (second compound 10 µM, first compound 0.00949 µM) was 0.27%. It also gave a viability, T/C (second compound 10 µM, first compound 0.03 µM) of 1.87%, a viability, T/C (second compound 10 µM, first compound 0.0949 µM) of 1.18% and a viability, T/C (second compound 10 µM, first compound 0.3 µM) of 0.16%.

In the case of CC1COCCN1c1cc(C2(S(C)(=N)=O)CC2)nc(-c2ccnc3[nH]ccc23)n1 (stereo unspecified) + CN1CCN(c2cc(C(=O)Nc3cc4cc(-c5cnn(C)c5)ccc4cn3)ccn2)CC1, the IC50 (second compound 0.0316 µM) is reported as 2250 nM, the IC50 (second compound 0.1 µM) is reported as 1320 nM and the IC50 (second compound 0.316 µM) is reported as < 31.6 nM. For the same compound, the IC50 (second compound 1 µM) was < 31.6 nM, the IC50 (second compound 3.16 µM) was < 31.6 nM and the IC50 (second compound 10 µM) was < 31.6 nM. For the same compound, the viability, T/C [1] was 93.4%, the viability, T/C [2] was 86.8% and the viability, T/C [3] was 105%. For the same compound, the viability, T/C [4] was 95%, the viability, T/C [5] was 31.2% and the viability, T/C [6] was 11.2%. The viability, T/C [7] was 76.9%, the viability, T/C [8] was 80.5% and the viability, T/C [9] was 74.2%. The viability, T/C [10] was 59.1%, the viability, T/C [11] was 22.6% and the viability, T/C [12] was 10.5%. It also gave a viability, T/C [13] of 23.9%, a viability, T/C [14] of 25.9% and a viability, T/C [15] of 24.3%. For the same compound, the viability, T/C [16] was 24.7%, the viability, T/C [17] was 19.7% and the viability, T/C [18] was 12.6%. For the same compound, the viability, T/C [19] was 0.89%, the viability, T/C [20] was 0.78% and the viability, T/C [21] was 0.7%. For the same compound, the viability, T/C [22] was 1.08%, the viability, T/C [23] was 1.18% and the viability, T/C [24] was 1.33%. It also gave a viability, T/C [25] of 1.91%, a viability, T/C [26] of 1.72% and a viability, T/C [27] of 1.28%. For the same compound, the viability, T/C [28] was 1.01%, the viability, T/C [29] was 1.48% and the viability, T/C [30] was 2.05%. It also gave a viability, T/C [31] of 0.93%, a viability, T/C [32] of 0.87% and a viability, T/C [33] of 1.19%. For the same compound, the viability, T/C [34] was 1.26%, the viability, T/C [35] was 1.01% and the viability, T/C [36] was 1.14%.

In the case of O=C(c1cc(Cc2n[nH]c(=O)c3ccccc23)ccc1F)N1CCN(C(=O)C2CC2)CC1 + CN1CCN(c2cc(C(=O)Nc3cc4cc(-c5cnn(C)c5)ccc4cn3)ccn2)CC1, the IC50 (second compound 0.0316 µM) is reported as > 10000 nM, the IC50 (second compound 0.1 µM) is reported as > 10000 nM and the IC50 (second compound 0.316 µM) is reported as < 31.6 nM. For the same compound, the IC50 (second compound 1 µM) was < 31.6 nM, the IC50 (second compound 3.16 µM) was < 31.6 nM and the IC50 (second compound 10 µM) was < 31.6 nM. It also gave a viability, T/C [1] of 95.8%, a viability, T/C [2] of 97.4% and a viability, T/C [3] of 97.2%. The viability, T/C [4] was 103%, the viability, T/C [5] was 102% and the viability, T/C [6] was 93.6%. The viability, T/C [7] was 82.5%, the viability, T/C [8] was 82.8% and the viability, T/C [9] was 82.7%. The viability, T/C [10] was 73.9%, the viability, T/C [11] was 73.2% and the viability, T/C [12] was 69%. For the same compound, the viability, T/C [13] was 24.6%, the viability, T/C [14] was 25.8% and the viability, T/C [15] was 23.1%. It also gave a viability, T/C [16] of 24.8%, a viability, T/C [17] of 24.2% and a viability, T/C [18] of 21.7%. For the same compound, the viability, T/C [19] was 0.33%, the viability, T/C [20] was 0.74% and the viability, T/C [21] was 2.04%. The viability, T/C [22] was 0.29%, the viability, T/C [23] was 1.71% and the viability, T/C [24] was 0.32%. It also gave a viability, T/C [25] of 2.76%, a viability, T/C [26] of 1.64% and a viability, T/C [27] of 1.3%. It also gave a viability, T/C [28] of 1.29%, a viability, T/C [29] of 1.16% and a viability, T/C [30] of 1.05%. For the same compound, the viability, T/C [31] was 1.59%, the viability, T/C [32] was 0.89% and the viability, T/C [33] was 0.83%. It also gave a viability, T/C [34] of 0.77%, a viability, T/C [35] of 1.1% and a viability, T/C [36] of 0.59%.
